This test concerns human sperm. As to the kind of experiment: Human sperm cultured in PCAGH or monomeric sugars: sperm motility vs control HTF (Table 3). Format: cell-based. As to conditions: for sperm motility compared to control HTF: human sperm; for sperm motility throughout a 24-hr culture period: compared to sperm cultured in arabinose and galactose or in control medium with no polysaccharides. As for the experimental part:
Sperm Motility. Sperm motility measurements may be performed by subjective visual determination using a phase contrast microscope to group sperm into total percent motile (swimming), and total percent progressively motile (swimming forward). AIso the speed of those sperm which are progressively motile is determined, i.e., fast, medium, slow.
Alternatively, CASA can be used to objectively determine the motility characteristics of individual sperm cells in a sample (Davis, Infertility & Reproductive Medicine Clinics 3:341, 1992). A 7 μl sperm sample is placed onto a slide or chamber designed for CASA, and the computer tracks individual sperm cells and determines their motility as to speed over distance. Data is then expressed as percent motile, and specific measurements are given for parameters, such as mean path velocity and track speed. The measurements of velocity and linearity correlate with future fertility in several species studied.
Samples containing sperm are incubated at 37° C. (human) or 39° C. (animal) in 5% CO2 and humidified air. At various timed intervals, sperm survival rate, motility characteristics, functional membrane health and membrane lipid peroxidation levels are determined as described in Example 2.

Data on 4 molecules can be found in patent US7838509B2, “Methods and compositions to improve germ cell and embryo survival and function” (Bio-Origyn LLC, priority 1995, dated 2010).

Regarding `O=C[C@@H](O)[C@H](O)[C@H](O)CO` [arabinose, reference compound], the “sperm motility compared to control HTF” value is, setting by setting: (culture time 3 hr) “= (Equivalent sperm motility compared to control HTF)”; (culture time 15 hr) “= (Equivalent sperm motility compared to control HTF)”; (culture time 24 hr) “= (Equivalent sperm motility compared to control HTF)”.
As for `O=C[C@H](O)[C@@H](O)[C@@H](O)[C@H](O)CO` [galactose, reference compound], the “sperm motility compared to control HTF” value by setting is: (culture time 3 hr) “= (Equivalent sperm motility compared to control HTF)”; (culture time 15 hr) “= (Equivalent sperm motility compared to control HTF)”; (culture time 24 hr) “= (Equivalent sperm motility compared to control HTF)”.
For the molecule `O=C[C@H](O)[C@@H](O)[C@@H](O)[C@H](O)C(=O)O` [galacturonic acid], the “sperm motility throughout a 24-hr culture period” value is “superior sperm motility”. For the same molecule, for the setting “culture time 3 hr”, the “sperm motility compared to control HTF” value is listed as “+”. The “sperm motility compared to control HTF” value (culture time 15 hr) was “+”. Also, the “sperm motility compared to control HTF” value (culture time 24 hr) is on record as “+”.
galactopyranosylarabinose: the “sperm motility throughout a 24-hr culture period” value is listed as “superior sperm motility”. The “sperm motility compared to control HTF” value (culture time 3 hr) is recorded as “+”. For the same molecule, the “sperm motility compared to control HTF” value (culture time 15 hr) is “+”. Also, for the setting “culture time 24 hr”, the “sperm motility compared to control HTF” value is recorded as “+”.
